A short description of the data set: Comparative solubility test in various solvents. The data set is classed as physicochemical. The following applies: 1 mM concentration, 23° C., stirred 18 h, visually inspected; for solubility at 18 h: organic solvent or mixture, thermodynamic from solid. As for the experimental part: Comparative Solubility Test
The comparative solubilities of the following Reference Compound 1 (reference from DE102017005884):
[drawing 83] and of Synthesis Example 1 in various solvents at 1 mM concentration at 23° C. are experimentally determined. The sample is stirred for 18 h at 23° C. and then visually inspected. In the table below the expression “soluble” means that after 18 h a clear solution is obtained. “Not soluble” means that remaining solid is observed.

The mark [1] stands for this setting: 1-Methoxy-2-propanol acetate, read-out: Solubility in 1-methoxy-2-propanol acetate.
[2] abbreviates: Cyclohexanone, read-out: Solubility in cyclohexanone.

Like-named read-outs stand apart in the source and are kept apart here.

As for `CCCCC[C@H]1CC[C@H](c2ccc(Oc3c(C)cc(P(=O)(O)O)cc3C)c(F)c2F)CC1` [Synthesis Example 1, [4-[2,3-difluoro-4-(4-pentylcyclohexyl)phenoxy]-3,5-dimethyl-phenyl]phosphonic acid], the Solubility in chloroform result is recorded as “Soluble” and the “Solubility in THF” value is reported as “Soluble”. Moreover, where the note is “1-Methoxy-2-propanol acetate”, the “Solubility in 1-methoxy-2-propanol acetate” value is on record as “Soluble”. Further, the Solubility in cyclohexanone result (Cyclohexanone) is “Soluble”. Further, the “Solubility in ethyl acetate” value (Ethyl acetate) is given as “Soluble”. Further, the solubility at 18 h under setting [1] is greater than 1000 µM. The solubility at 18 h under setting [2] is greater than 1000 µM. Besides, the solubility at 18 h (Toluene, read-out: Solubility in toluene) is less than 1000 µM.

Turning to `CCCCCC1CCC(c2ccc(OCCCCCCCCCCCP(=O)(O)O)c(F)c2F)CC1` (centres unmarked) [Reference 1, 11-[2,3-difluoro-4-(4-pentylcyclohexyl)phenoxy]undecylphosphonic acid, reference compound], the Solubility in chloroform entry was “Soluble” and the “Solubility in THF” value is “Soluble”. For the setting “Toluene”, the Solubility in toluene result is given as “Soluble”. Besides, the solubility at 18 h under setting [1] is less than 1000 µM. Under setting [2], the solubility at 18 h was less than 1000 µM. Further, under “Ethyl acetate, read-out: Solubility in ethyl acetate”, the solubility at 18 h was less than 1000 µM.
